# Patent US20120065210A1, “SUBSTITUTED HEXAHYDROPYRROLO[1,2-C]IMIDAZOLONES” (priority 2010, published 2012)
# Molecular target: interaction between p53 and MDM2 proteins (recombinant GST-tagged MDM2, p53 peptide) (Homo sapiens, UniProt Q00987)
# Assay: HTRF assay of inhibition of the p53-MDM2 interaction (GST-MDM2 / biotinylated p53 peptide)
# Assay type: binding
# Settings: bsa: 0.02%
# Experimental: The ability of the compounds to inhibit the interaction between p53 and MDM2 proteins was measured by an HTRF (homogeneous time-resolved fluorescence) assay in which recombinant GST-tagged MDM2 binds to a peptide that resembles the MDM2-interacting region of p53. Binding of GST-MDM2 protein and p53-peptide (biotinylated on its N-terminal end) is registered by the FRET (fluorescence resonance energy transfer) between Europium (Eu)-labeled anti-GST antibody and streptavidin-conjugated Allophycocyanin (APC).
# Add 10 uL diluted compounds (1:5 dilution in reaction buffer) to each well, mix by shaking Add 20 uL biotinylated p53 peptide (180 nM working solution) in reaction buffer to each well and mix on shaker. Incubate at 37° C. for 1 h. Add 20 uL streptavidin-APC and Eu-anti-GST antibody mixture (6 nM Eu-anti-GST and 60 nM streptavidin-APC working solution) in TBS buffer with 0.2% BSA, shake at room temperature for 30 minutes and read using a TRF-capable plate reader at
# 665 and 615 nm (Victor 5, Perkin ElmerWallac), If not specified, the reagents were purchased from Sigma Chemical Co.
# interaction between p53 and MDM2 proteins (recombinant GST-tagged MDM2, p53 peptide), sequence (Q00987 whole entry): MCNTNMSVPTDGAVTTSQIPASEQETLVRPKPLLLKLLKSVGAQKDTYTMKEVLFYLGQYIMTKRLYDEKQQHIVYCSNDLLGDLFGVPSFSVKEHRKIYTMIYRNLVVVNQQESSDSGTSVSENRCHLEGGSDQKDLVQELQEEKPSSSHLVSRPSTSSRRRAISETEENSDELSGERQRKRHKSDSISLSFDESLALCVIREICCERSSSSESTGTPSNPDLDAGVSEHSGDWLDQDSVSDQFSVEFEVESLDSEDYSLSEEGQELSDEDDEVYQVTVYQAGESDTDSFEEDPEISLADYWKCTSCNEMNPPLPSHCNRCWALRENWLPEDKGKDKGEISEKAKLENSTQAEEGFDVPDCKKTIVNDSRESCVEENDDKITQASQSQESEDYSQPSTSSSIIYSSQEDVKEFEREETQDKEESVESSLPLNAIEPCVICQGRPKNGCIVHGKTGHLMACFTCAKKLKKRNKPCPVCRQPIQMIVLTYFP
row,Structure (SMILES),IC50 [nM]
1,"CC(C)(C)C[C@@H]1N2CN(c3ccc(C(=O)O)cc3O)C(=O)[C@H]2[C@H](c2cccc(Cl)c2F)[C@@]1(C#N)c1ccc(Cl)cc1F [Example 6, 4-[(5S,6R,7S,7aR)-7-(3-chloro-2-fluoro-phenyl)-6-(4-chloro-2-fluoro-phenyl)-6-cyano-5-(2,2-dimethyl-propyl)-1-oxo-tetrahydro-pyrrolo[1,2-c]imidazol-2-yl]-3-hydroxy-benzoic acid]",13
2,"CC(C)(C)C[C@@H]1N2CN(CC(=O)O)C(=O)[C@H]2[C@H](c2cccc(Cl)c2F)[C@@]1(C#N)c1ccc(Cl)cc1F [Example 4, [(5S,6R,7S,7aR)-7-(3-chloro-2-fluoro-phenyl)-6-(4-chloro-2-fluoro-phenyl)-6-cyano-5-(2,2-dimethyl-propyl)-1-oxo-tetrahydro-pyrrolo[1,2-c]imidazol-2-yl]-acetic acid]",10
3,"COc1cc(C(=O)O)ccc1N1CN2[C@@H](CC(C)(C)C)[C@](C#N)(c3ccc(Cl)cc3F)[C@@H](c3cccc(Cl)c3F)[C@@H]2C1=O [Example 3, 4-[(5S,6R,7S,7aR)-7-(3-chloro-2-fluoro-phenyl)-6-(4-chloro-2-fluoro-phenyl)-6-cyano-5-(2,2-dimethyl-propyl)-1-oxo-tetrahydro-pyrrolo[1,2-c]imidazol-2-yl]-3-methoxy-benzoic acid]",13
4,"CC(C)(C)C[C@@H]1N2CN(c3ccc(C(=O)O)cc3)C(=O)[C@H]2[C@H](c2cccc(Cl)c2F)[C@@]1(C#N)c1ccc(Cl)cc1F [Example 2, 4-[(5S,6R,7S,7aR)-7-(3-chloro-2-fluoro-phenyl)-6-(4-chloro-2-fluoro-phenyl)-6-cyano-5-(2,2-dimethyl-propyl)-1-oxo-tetrahydro-pyrrolo[1,2-c]imidazol-2-yl]-benzoic acid]",8
5,"COc1cc(N2CN3[C@@H](CC(C)(C)C)[C@](C#N)(c4ccc(Cl)cc4F)[C@@H](c4cccc(Cl)c4F)[C@@H]3C2=O)ccc1C(=O)O [Example 1, 4-[(5S,6R,7S,7aR)-7-(3-chloro-2-fluoro-phenyl)-6-(4-chloro-2-fluoro-phenyl)-6-cyano-5-(2,2-dimethyl-propyl)-1-oxo-tetrahydro-pyrrolo[1,2-c]imidazol-2-yl]-2-methoxy-benzoic acid]",8

# Continued, values first:
row,IC50 [nM],Structure (SMILES)
1,21,"CC(C)(C)C[C@@H]1N2CN(c3ccc(C(=O)O)c(C(F)(F)F)c3)C(=O)[C@H]2[C@H](c2cccc(Cl)c2F)[C@@]1(C#N)c1ccc(Cl)cc1F [Example 7, 4-[(5S,6R,7S,7aR)-7-(3-chloro-2-fluoro-phenyl)-6-(4-chloro-2-fluoro-phenyl)-6-cyano-5-(2,2-dimethyl-propyl)-1-oxo-tetrahydro-pyrrolo[1,2-c]imidazol-2-yl]-2-trifluoromethyl-benzoic acid]"
2,15,"CC(C)(C)C[C@@H]1N2[C@H](CC3CCCCC3)N(c3ccc(C(=O)O)cc3)C(=O)[C@H]2[C@H](c2cccc(Cl)c2F)[C@@]1(C#N)c1ccc(Cl)cc1F (racemic) [Example 35, rac-4-[(3S,5S,6R,7S,7aR)-7-(3-chloro-2-fluoro-phenyl)-6-(4-chloro-2-fluoro-phenyl)-6-cyano-3-cyclohexylmethyl-5-(2,2-dimethyl-propyl)-1-oxo-tetrahydro-pyrrolo[1,2-c]imidazol-2-yl]-benzoic acid]"
3,9,"C=CCC[C@@H]1N(c2ccc(C(=O)O)c(OC)c2)C(=O)[C@H]2[C@H](c3cccc(Cl)c3F)[C@@](C#N)(c3ccc(Cl)cc3F)[C@H](CC(C)(C)C)N12 [Example 41, 4-[(3S,5S,6R,7S,7aR)-3-but-3-enyl-7-(3-chloro-2-fluoro-phenyl)-6-(4-chloro-2-fluoro-phenyl)-6-cyano-5-(2,2-dimethyl-propyl)-1-oxo-tetrahydro-pyrrolo[1,2-c]imidazol-2-yl]-2-methoxy-benzoic acid]"
